Measured values from patent US10124004B2, “Pyrido[3,4-d]pyrimidine derivative and pharmaceutically acceptable salt thereof” (Teijin Pharma Limited, priority 2015, dated 2018).
Like-named read-outs stand apart in the source and are kept apart here.

Assays:
[1] = biological target: T1, CDK4/cyclin D3 (Homo sapiens, UniProt P11802); assay: Human CDK4/cyclin D3 inhibitory activity (QS S Assist CDK4/Cyclin D3_FP Kit, IMAP fluorescence polarization); type: biochemical
T1 construct: purchased Carna Biosciences, Inc. QS S Assist CDK4/Cyclin D3_FP Kit
In short: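 IMAP fluorescence polarization kit: CDK4/cyclin D3 at 12.5-25 ng/well with kit ATP/substrate/metal mix in 20 mM HEPES pH 7.4, 0.01% Tween20, 2 mM DTT, 45 min at room temperature. FP read at 485/535 nm after 30 min binding; IC50 from dose-response fit of percent inhibition versus enzyme and no-enzyme controls.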

[2] = biological target: T2, CDK2/cyclin A2 (Homo sapiens, UniProt P24941); assay: Human CDK2/cyclin A2 inhibitory activity (QS S Assist CDK2/Cyclin A2_FP Kit, IMAP fluorescence polarization); type: biochemical
T2 construct: purchased Carna Biosciences, Inc. QS S Assist CDK2/Cyclin A2_FP Kit
In short: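 Kinase activity read as fluorescence polarization (485/535 nm) after phosphorylated fluorescent substrate binds IMAP reagent (30 min, RT, dark). Enzyme (2.5 ng/well) reacted 60 min at RT with ATP/substrate/metal in HEPES pH 7.4 buffer with Tween 20 and DTT; no-enzyme wells define 0% activity; IC50 by curve fit.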

[3] = 50% inhibitory concentration against CDK4/cyclin D3, given as class symbol
[4] = 50% inhibitory concentration against CDK2/cyclin A2, given as class symbol
[5] = Human CDK4/cyclin D3 inhibitory activity, read-out: CDK4 Activity symbol
[6] = Human CDK2/cyclin A2 inhibitory activity, read-out: CDK2 Activity symbol

T1 sequence (P11802 whole entry): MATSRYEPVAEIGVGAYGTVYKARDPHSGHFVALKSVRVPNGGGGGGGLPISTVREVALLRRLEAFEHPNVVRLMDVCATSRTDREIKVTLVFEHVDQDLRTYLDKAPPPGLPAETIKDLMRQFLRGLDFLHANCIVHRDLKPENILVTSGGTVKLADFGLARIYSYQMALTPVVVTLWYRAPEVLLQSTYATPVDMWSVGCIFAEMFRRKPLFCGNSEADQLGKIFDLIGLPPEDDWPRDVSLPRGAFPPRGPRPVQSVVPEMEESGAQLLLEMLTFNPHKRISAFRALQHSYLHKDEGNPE
T1 sequence (P30281 whole entry partner): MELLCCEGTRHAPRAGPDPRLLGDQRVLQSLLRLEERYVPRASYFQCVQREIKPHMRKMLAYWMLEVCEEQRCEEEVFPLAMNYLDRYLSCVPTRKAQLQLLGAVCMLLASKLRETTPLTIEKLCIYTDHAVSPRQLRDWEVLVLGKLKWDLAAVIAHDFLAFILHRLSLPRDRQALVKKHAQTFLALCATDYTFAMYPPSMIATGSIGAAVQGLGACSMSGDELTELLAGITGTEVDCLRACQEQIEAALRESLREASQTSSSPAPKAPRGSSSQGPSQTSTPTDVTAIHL

Structure (SMILES) | IC50 [1, 3] [nM] | IC50 [2, 4] [nM] | IC50 [1, 5] [nM] | IC50 [2, 6] [nM]
CCCNc1nc([C@@H](C)O)cc2cnc(Nc3ccc(CN4CCN(CCO)[C@H](C)C4)cn3)nc12 [Compound 1209] | < 10 | ≥ 100 | – | –
CO[C@H](C)c1cc2cnc(Nc3ccc(OC4CCNC4)cn3)nc2c(NC(C)C)n1 (stereo partly shown) [Compound 290] | – | – | < 10 | ≥ 100
CC(C)Nc1nc([C@@H](C)O)cc2cnc(Nc3ccc(N4CCNC5(CC5)C4=O)cn3)nc12 [Compound 733] | 10 to 100 | ≥ 100 | – | –
CC(C)Nc1nc(C(C)O)cc2cnc(Nc3ccc(N4CCC(O)C(F)C4)nn3)nc12 (stereo not shown) [Compound 608] | – | – | < 10 | ≥ 100
CCNc1nc([C@@H](C)OC)cc2cnc(Nc3ccc(N4CCNCC4)cn3)nc12 [Compound 919] | < 10 | ≥ 100 | – | –
C[C@@H](O)c1cc2cnc(Nc3ccc(CN4CCC(CO)CC4)cn3)nc2c(NCC2CCOCC2)n1 [Compound 1152] | < 10 | ≥ 100 | – | –
CC(C)Nc1nc(C(F)F)cc2cnc(Nc3ccc(CN4CCN(CC(F)(F)F)CC4)cn3)nc12 [Compound 116] | – | – | 10 to 100 | ≥ 100
CC(C)Nc1nc(C(F)F)cc2cnc(Nc3ccc(CN4CCS(=O)(=O)CC4)cn3)nc12 [Compound 113] | – | – | < 10 | ≥ 100
CNCCOc1ccc(Nc2ncc3cc([C@@H](C)O)nc(N[C@@H](C)COC)c3n2)nc1 [Compound 757] | < 10 | ≥ 100 | – | –
CCCNc1nc([C@@H](C)OC)cc2cnc(Nc3ccc4c(n3)CCN(C(=O)OCCN(C)C)C4)nc12 [Compound 1133] | < 10 | ≥ 100 | – | –
CO[C@H](C)c1cc2cnc(Nc3ccc(N4CCNCC4)nn3)nc2c(N[C@@H]2CCOC2)n1 [Compound 307] | – | – | < 10 | ≥ 100
CO[C@H](C)c1cc2cnc(Nc3ccc(OC4CCNCC4)cn3)nc2c(NC2CCOCC2)n1 [Compound 873] | < 10 | ≥ 100 | – | –
C[C@@H](O)c1cc2cnc(Nc3ccc(N4CCNCC4=O)cn3)nc2c(NC2CCOCC2)n1 [Compound 350] | – | – | < 10 | ≥ 100
C[C@@H](O)c1cc2cnc(Nc3ccc(CN4CCNCC4)cn3)nc2c(N[C@H]2CCCOC2)n1 [Compound 256] | – | – | < 10 | ≥ 100
CC(C)Nc1nc([C@H](C)O)c(F)c2cnc(Nc3ccc(N4CCNCC4)cn3)nc12 [Compound 63] | – | – | < 10 | ≥ 100
CCC(O)c1cc2cnc(Nc3ccc(N4CCNCC4)cn3)nc2c(NC(C)C)n1 (stereo not shown) [Compound 1034] | < 10 | ≥ 100 | – | –
O=C(O)[C@H]1CC[C@H](Nc2nc(C(F)F)cc3cnc(Nc4ccc(CN5CCNCC5)cn4)nc23)CC1 [Compound 383] | – | – | 10 to 100 | ≥ 100
CNCC(C)(C)c1ccc(Nc2ncc3cc([C@@H](C)O)nc(NC(C)C)c3n2)nc1 [Compound 263] | – | – | < 10 | ≥ 100
CC(C)Nc1nc([C@@H](C)O)cc2cnc(Nc3ccc(CN4CC5CCC(C4)N5C)cn3)nc12 [Compound 1224] | < 10 | ≥ 100 | – | –
COCC(C)(C)Nc1nc([C@@H](C)O)cc2cnc(Nc3ccc(CCO)cn3)nc12 [Compound 228] | – | – | 10 to 100 | ≥ 100

Structure (SMILES) | IC50 [1, 3] [nM] | IC50 [2, 4] [nM] | IC50 [1, 5] [nM] | IC50 [2, 6] [nM]
CC(C)Nc1nc(C(F)F)cc2cnc(Nc3ccc(-c4cn[nH]c4)cn3)nc12 [Compound 209] | – | – | 10 to 100 | ≥ 100
CO[C@H](C)c1cc2cnc(Nc3ccc(N4CCNCC4)cn3)nc2c(NC(C)C)n1 [Compound 39] | – | – | < 10 | ≥ 100
CC(C)Nc1nc(C(F)F)cc2cnc(Nc3ccc(CCC(N)=O)cn3)nc12 [Compound 121] | – | – | < 10 | 10 to 100
COC(C)c1cc2cnc(Nc3ccc(N4CC5CCC(C4)N5)cn3)nc2c(NC(C)C)n1 (stereo not shown) [Compound 501] | – | – | < 10 | ≥ 100
CC(C)Nc1nc(C(F)F)cc2cnc(Nc3ccc(CCO)cn3)nc12 [Compound 134] | – | – | < 10 | 10 to 100
CO[C@H](C)c1cc2cnc(Nc3ccc(CN4CCNCC4)cn3)nc2c(NC2CCOCC2)n1 [Compound 291] | – | – | < 10 | ≥ 100
CC(C)Nc1nc([C@@H](C)O)cc2cnc(Nc3ccc(N4CC5(CC(N)C5)C4)nn3)nc12 [Compound 576] | – | – | < 10 | ≥ 100
COCCNc1nc(C(F)F)cc2cnc(Nc3ccc(N4CCNCC4)cn3)nc12 [Compound 15] | – | – | < 10 | ≥ 100
O=C1CNCCN1c1ccc(Nc2ncc3cc(C(F)F)nc(NC4CCOCC4)c3n2)nc1 [Compound 822] | < 10 | 10 to 100 | – | –
CC(C)Nc1nc(C(F)F)cc2cnc(Nc3ccc(CNS(N)(=O)=O)cn3)nc12 [Compound 187] | – | – | 10 to 100 | ≥ 100
CC(C)Nc1nc(C(C)O)cc2cnc(Nc3ccc(OC4CCC(C(=O)O)CC4)cn3)nc12 (single isomer, unassigned) [Compound 831] | 10 to 100 | ≥ 100 | – | –
COCCNCc1ccc(Nc2ncc3cc([C@@H](C)O)nc(NC(C)(C)COC)c3n2)nc1 [Compound 242] | – | – | 10 to 100 | ≥ 100
CC(C)Nc1nc(C(F)F)cc2cnc(Nc3ccc(C4CCOCC4=O)cn3)nc12 (stereo not shown) [Compound 161] | – | – | < 10 | 10 to 100
CC(C)Nc1nc(C(F)F)cc2cnc(Nc3ccc(N4CCN(C)C(=O)C4)cn3)nc12 [Compound 84] | – | – | < 10 | 10 to 100
CC(C)Nc1nc([C@@H](C)O)cc2cnc(Nc3ccc(N4CCN(C(C)C)CCC4=O)cn3)nc12 [Compound 631] | < 10 | 10 to 100 | – | –
CO[C@H](C)c1cc2cnc(Nc3ccc(N4CC5(CCN5)C4)nn3)nc2c(NC(C)C)n1 [Compound 696] | < 10 | ≥ 100 | – | –
CC(C)Nc1nc(C(F)F)cc2cnc(Nc3ccc(CN4CCCCC4C(=O)O)cn3)nc12 (stereo not shown) [Compound 194] | – | – | < 10 | 10 to 100
CC(C)Nc1nc(C(F)F)cc2cnc(Nc3ccc(NS(C)(=O)=O)cn3)nc12 [Compound 88] | – | – | ≥ 100 | ≥ 100
CO[C@H](C)c1cc2cnc(Nc3ccc(N4CCNCC4)nn3)nc2c(N[C@H]2CCOC2)n1 [Compound 306] | – | – | 10 to 100 | ≥ 100
CC(C)Nc1nc([C@@H](C)O)cc2cnc(Nc3ccc(CC(=O)N4CCN(C(C)C)CC4)cn3)nc12 [Compound 615] | – | – | < 10 | ≥ 100

Structure (SMILES) | IC50 [1, 3] [nM] | IC50 [2, 4] [nM] | IC50 [1, 5] [nM] | IC50 [2, 6] [nM]
Cc1ncn(Cc2ccc(Nc3ncc4cc([C@@H](C)O)nc(NC(C)C)c4n3)nc2)c1C(=O)O [Compound 965] | 10 to 100 | ≥ 100 | – | –
CC(C)Nc1nc([C@@H](C)O)cc2cnc(Nc3ccc(N4CC5(CCNC5)C4)nn3)nc12 [Compound 574] | – | – | < 10 | ≥ 100
CO[C@H](C)c1cc2cnc(Nc3ccc(N4CCNCC4)nn3)nc2c(N[C@H]2CC[C@H](O)CC2)n1 [Compound 341] | – | – | < 10 | ≥ 100
CCCNc1nc([C@@H](C)O)cc2cnc(Nc3ccc4c(n3)CCN(CCN(C)C)C4)nc12 [Compound 1138] | < 10 | ≥ 100 | – | –
FC(F)c1cc2cnc(Nc3ccc(N4CCNCC4)nn3)nc2c(N[C@H]2CCCOC2)n1 [Compound 381] | – | – | < 10 | ≥ 100
COC1CCC(Nc2nc([C@@H](C)O)cc3cnc(Nc4ccc(N5CCNCC5=O)cn4)nc23)CC1 (stereo partly shown) [Compound 650] | < 10 | ≥ 100 | – | –
CC(C)Nc1nc(C(F)F)cc2cnc(Nc3ccc(CN4CCCC(O)C4)cn3)nc12 (stereo not shown) [Compound 128] | – | – | < 10 | 10 to 100
CC(C)Nc1nc([C@@H](C)O)cc2cnc(Nc3cnc(N4CCNCC4)cn3)nc12 [Compound 789] | < 10 | ≥ 100 | – | –
C[C@@H](O)c1cc2cnc(Nc3ccc(N4CCNCC4)nn3)nc2c(N[C@H]2CCOC2)n1 [Compound 251] | – | – | < 10 | ≥ 100
CC(C)Nc1nc([C@@H](C)O)cc2cnc(Nc3ccc(N4CCNC[C@@H]4C)cn3)nc12 [Compound 986] | < 10 | ≥ 100 | – | –
CC(C)Nc1nc(C2CCOC2)cc2cnc(Nc3ccc(N4CCNCC4=O)cn3)nc12 (stereo not shown) [Compound 763] | < 10 | ≥ 100 | – | –
CCCNc1nc([C@@H](C)OC)cc2cnc(Nc3ccc(CN4C[C@H]5C[C@@H]4CN5)cn3)nc12 [Compound 857] | < 10 | ≥ 100 | – | –
CC(C)Nc1nc([C@@H](C)O)cc2cnc(Nc3ccc(N4CCN(C(=O)OC(C)C)CC4)nn3)nc12 [Compound 767] | < 10 | ≥ 100 | – | –
CC(C)Nc1nc(C(F)F)cc2cnc(Nc3ccc(C4CCNC(=O)C4)cn3)nc12 (stereo not shown) [Compound 218] | – | – | < 10 | 10 to 100
CC(C)Nc1nc(C(C)O)cc2cnc(Nc3ccc(OC4CCCC4N(C)C)cn3)nc12 (stereo not shown) [Compound 742] | < 10 | ≥ 100 | – | –
CC(C)Nc1nc([C@@H](C)O)cc2cnc(Nc3ccc(N4CCN(C[C@@H](C)O)CC4)nn3)nc12 [Compound 677] | < 10 | ≥ 100 | – | –
CO[C@H](C)c1cc2cnc(Nc3ccc(CN4CCNCC4=O)cn3)nc2c(NC(C)C)n1 [Compound 237] | – | – | 10 to 100 | ≥ 100
CNCCOc1ccc(Nc2ncc3cc(C(C)O)nc(NC4(C)CCCOC4)c3n2)nc1 (single isomer, unassigned) [Compound 869] | < 10 | 10 to 100 | – | –
CCNc1nc([C@@H](C)O)cc2cnc(Nc3ccc(CN4CCN(C[C@H](C)O)CC4)cn3)nc12 [Compound 976] | < 10 | ≥ 100 | – | –
